Data taken from US20070275904A1, “CONJUGATES OF AZIRIDINYL-EPOTHILONE ANALOGS AND PHARMACEUTICAL COMPOSITIONS COMPRISING SAME” (BRISTOL-MYERS SQUIBB COMPANY, priority 2006, published 2007).
Where two headings read alike, the source gives them in different places.

How the values were obtained:
[1] = test system: A2780Tax human ovarian carcinoma cell line; test: In vitro MTS assay, paclitaxel-resistant A2780Tax versus A2780; assay type: cell-based
Description: (§1) In vitro cytotoxicity was assessed in tumor cells using a tetrazolium-based colorimetric assay which takes advantage of the metabolic conversion of MTS (3-(4,5-dimethylthiazol-2-yl)-5-(3-carboxymethoxyphenyl)-2-([…])-2H-tetrazolium, inner salt) to a reduced form that absorbs light at 492 nm. Cells were seeded 24 hr prior to addition of the epothilone, epothilone analog, conjugated epothilone, or conjugated epothilone analog. Following a 72 hour incubation at 37° C. with serially diluted compound, MTS, in combination with the electron coupling agent phenazine methosulfate, was added to the cells. The incubation was continued for 3 hours, then the absorbancy of the medium at 492 nm was measured with a spectrophotometer to obtain the number of surviving cells relative to control populations. The results are expressed as median cytotoxic concentrations (IC50 values).
(§2) Other epothilone analogs, e.g., aziridinyl epothilones, are known in the art (see, e.g., U.S. Pat. No. 6,399,638; Regueiro-Ren, A, et al. (2001) Org. Letters. 3:2693-96) and show potent antitumor cytotoxicity. For example, an MTS assay that compared the relative cytotoxic potency of a number of epothilone analogs against a pair of taxane-resistant cancer cell lines (HCTVM46 and […]) was conducted (see Table 1). HCTVM46 is a human colon carcinoma cell line derived from the sensitive HCT116 parent line, and is resistant to taxanes due to overexpression of the 170 kD p-glyprotein drug efflux transporter. A2780Tax is a human ovarian carcinoma cell line derived from the parent A2780 line, and is resistant to paclitaxel as a result of a mutation in the tubulin amino acid sequence that impairs the ability of paclitaxel to bind.

[2] = test system: HCT116 colon carcinoma cell line; test: cells; assay type: cell-based, human; conditions: read-out: HCT116 IC50
Description: as §1, §2
(§3) As is shown in Table 1, various aziridinyl epothilone analogs (Compounds CC-EE) show potent antitumor activity against both the HCT116 colon and A2780 ovarian carcinoma cell lines, compared to other known antitumor agents, e.g., paclitaxel, compound AA, and epothilone B.

[3] = test system: A2780 ovarian carcinoma cell line; test: cells; assay type: cell-based, human; conditions: read-out: A2780 IC5
Description: as §1, §2, §3

[4] = test system: HCT116VM46 (HCTVM46) human colon carcinoma cell line; assay type: cell-based; conditions: R/S ratio = HCT116 IC50/HCT116VM46IC50 as printed
Description: as §1, §2

[5] = test system: KB nasopharyngeal epidermoid carcinoma xenografts; test: KB in vivo FRα(+) tumor model, xenografts in nude mice; conditions: FIG. 4
Source text: (§4) Female CD2F1 mice (Harlan Sprague-Dawley Inc., 20-22 g) maintained in a controlled environment and provided with water and food ad libitum were used in these studies. The murine FRα(−) Madison 109 (M109) lung carcinoma (Marks et al., 1977) and the FR-expressing (FRα(+)) 98M109 variant were used to evaluate the efficacy of the epothilone, epothilone analog (e.g., epothilone derivative), folate-epothilone conjugate, or folate-epothilone analog conjugate. In addition, the human head and neck epidermoid carcinoma KB grown in nude mice was also used for this purpose.
(§5) For administration of epothilones or epothilone analogs to mice, an excipient consisting of the following was used: CREMOPHOR®/ethanol/water (1:1:8, v/v). The compounds were first dissolved in a mixture of CREMOPHOR®/ethanol (50:50). Final dilution to the required dosage strength was made less than 1 hr before drug administration. Mice were administered the agents by bolus IV injection through the tail vein. Folate-epothilone conjugates or folate-epothilone analog conjugates were prepared in sterile phosphate buffered saline and administered to mice by IV bolus injection through the tail vein at a volume of 0.01 mL/g of mice. Treatment of each animal was based on individual body weight. […]
(§6) Tumor response was determined by measurement of tumors with a caliper twice a week, until the tumors reached a predetermined “target” size of 1 gm. […]
(§7) Antitumor activity was evaluated at the maximum tolerated dose (MTD) which is defined as the dose level immediately […] which excessive toxicity (i.e. more than one death) occurred. When death occurred, the day of death was recorded. […]
(§8) To estimate tumor cell kill, the tumor volume doubling time (TVDT) was first calculated with the formula: TVDT=Median time (days) for control tumors to reach target size−Median time (days) for control tumors to reach half the target size And, Log cell kill=T−C÷(3.32×TVDT) Statistical evaluations of data were performed using Gehan's generalized Wilcoxon test.

FRα(+) 98M109 tumors = test: FRα(+) 98M109 tumor model, competition with a folate analog; assay type: in vivo, mice; conditions: folate analog at 20-fold excess of the dose of compound J; FIG. 6
Source text: Female CD2F1 mice (Harlan Sprague-Dawley Inc., 20-22 g) maintained in a controlled environment and provided with water and food ad libitum were used in these studies. The murine FRα(−) Madison 109 (M109) lung carcinoma (Marks et al., 1977) and the FR-expressing (FRα(+)) 98M109 variant were used to evaluate the efficacy of the epothilone, epothilone analog (e.g., epothilone derivative), folate-epothilone conjugate, or folate-epothilone analog conjugate. In addition, the human head and neck epidermoid carcinoma KB grown in nude mice was also used for this purpose. […]
as §6, §7, §8

[6] = target: T1, FR expressed on KB tumor cells (Homo sapiens, UniProt P15328); test: Displacement of radiolabeled folic acid from FR on KB tumor cells; assay type: binding; conditions: compared to folic acid, RA of folic acid=1.0
T1 construct: FR expressed on KB tumor cells grown to confluence; endogenous in cells; host or cells: KB tumor cells
T1 sequence (P15328 25-234): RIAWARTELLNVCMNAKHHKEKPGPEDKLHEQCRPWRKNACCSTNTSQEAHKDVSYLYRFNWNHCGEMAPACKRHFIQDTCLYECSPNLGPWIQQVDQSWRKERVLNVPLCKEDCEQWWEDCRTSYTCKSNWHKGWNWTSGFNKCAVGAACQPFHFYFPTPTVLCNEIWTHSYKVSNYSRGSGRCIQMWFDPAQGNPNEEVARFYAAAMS
Description: The binding of folate conjugates of Compound AA to FR was determined in an assay that measures displacement of radiolabeled folic acid from FR expressed on KB tumor cells grown to confluence.

[7] = FRα(−) M109 parent tumor model in mice; assay type: in vivo; conditions: female, CD2F1, mouse, in vivo, M109 model, IV, read-out: maximum tolerated dose (MTD)
Source text: as §4
(§9) For administration of epothilones or epothilone analogs to mice, an excipient consisting of the following was used: CREMOPHOR®/ethanol/water (1:1:8, v/v). The compounds were first dissolved in a mixture of CREMOPHOR®/ethanol (50:50). Final dilution to the required dosage strength was made less than 1 hr before drug administration. Mice were administered the agents by bolus IV injection through the tail vein. Folate-epothilone conjugates or folate-epothilone analog conjugates were prepared in sterile phosphate buffered saline and administered to mice by IV bolus injection through the tail vein at a volume of 0.01 mL/g of mice. Treatment of each animal was based on individual body weight.
(§10) The required number of animals needed to detect a meaningful response were pooled at the start of the experiment and each was given a subcutaneous inoculation of a tumor brei (2% w/v). Tumors were allowed to grow for 4 days. On the fourth day, animals were evenly distributed to various treatment and control groups. Treated animals were checked daily for treatment related toxicity/mortality. Each group of animals was weighed before the initiation of treatment (Wt1) and then again following the last treatment dose (Wt2). The difference in body weight (Wt2−Wt1) provides a measure of treatment-related toxicity.
(§11) Tumor response was determined by measurement of tumors with a caliper twice a week, until the tumors reached a predetermined “target” size of 1 gm. Tumor weights (mg) were estimated from the formula: Tumor weight=(length×width^2)÷2
as §7, §8

[8] = test system: FRα(−) M109 murine lung carcinoma; test: FRα(−) M109 parent tumor model in mice; assay type: in vivo; conditions: IV bolus, FIG. 5
Source text: as §4, §9, §10, §11, §7, §8

Phase II clinical trials = conditions: in vivo
[9] = test system: clonogenic KB cancer cells; test: Clonogenic cell survival (colony formation) assay, KB cells; assay type: cell-based, human; conditions: FIG. 3; for fold by which compound G is more potent than the named compound (IC90): KB cells, 17 hours exposure
Description: Cancer cells were seeded at 3.0E+05 cells in a T75 flask with 10 ml of RPMI1640 media, free of folic acid, and containing 10% fetal bovine serum and 25 mM HEPES. Cells were grown in a 37° C. incubator containing 5% CO2 for 2 days. On day 2, supernatants were removed from the flasks, and the flasks were divided into 2 groups. One group of cells were incubated with 5 ml of media containing […] of folic acid (Sigma) for 30 minutes and the others were grown in 5 ml of media without added folic acid. Cells were then treated with 20 nM of epothilone, epothilone analog, conjugated epothilone, or conjugated epothilone analog for one hour. At the end of the incubation, the drugs were removed from the flasks and the cells were washed with PBS buffer 3×. After washing, 5 ml of complete media were added into each flask, and the cell was grown in the CO2 incubator for 23 hours. The next morning, the cells were removed from the flasks by trypsinization, cell numbers were determined, and then cells were plated in a 6 well plates. Ten days after plating, colonies were stained with crystal violet and counted. The surviving fractions were determined.
This is important because it is the aziridine epothilone analog, e.g., Compound G, that mediates the antitumor effects upon release from folic acid. […] The concentration needed to kill 90% of clonogenic KB cancer cells (IC90) was determined after a drug exposure duration of 17 hours.

[10] = KB in vivo FRα(+) tumor model, xenografts in nude mice; conditions: mouse, in vivo; KB model, nude mice, IV; read-out: maximum tolerated dose (MTD)
Source text: as §4, §5, §6, §7, §8

[11] = Mean IC50 ± SD from four separate experiments, MTS, 72 hour incubation
[12] = Homo sapiens, HCT-116, Mean IC50 ± SD from four separate experiments, MTS, 72 hour incubation

## C/C(=C\c1csc(C)n1)[C@@H]1C[C@@H]2O[C@]2(C)CCC[C@H](C)[C@H](O)[C@@H](C)C(=O)C(C)(C)[C@@H](O)CC(=O)O1 [Epothilone B]
[1]
  R/S Ratio (A2780): 2.5
[2]; [11]
  IC50: 0.4 ± 0.13 nM
[3]; [11]
  IC50: 0.23 ± 0.09 nM
[4]
  R/S Ratio (HCT116): 0.5

## C/C(=C\c1csc(C)n1)C1C[C@H]2[C@@H](CCC[C@H](C)[C@H](O)[C@@H](C)C(=O)C(C)(C)[C@@H](O)CC(=O)O1)N2C (stereo partly drawn) [DD]
[1]
  R/S Ratio (A2780): 4.1
[2]; Homo sapiens, HCT-116, 72 h
  IC50: 0.37 ± 0.13 nM
[3]; Homo sapiens, A2780, 72 h
  IC50: 0.25 ± 0.06 nM
[4]
  R/S Ratio (HCT116): 0.6

## C/C(=C\c1csc(C)n1)[C@@H]1C[C@H]2[C@@H](CCC[C@H](C)[C@H](O)[C@@H](C)C(=O)C(C)(C)[C@@H](O)CC(=O)O1)N2CCOC(=O)OCCSSC[C@H](NC(=O)[C@H](CC(=O)O)NC(=O)[C@H](CCCNC(=N)N)NC(=O)[C@H](CC(=O)O)NC(=O)CC[C@H](NC(=O)c1ccc(NCc2cnc3nc(N)[nH]c(=O)c3n2)cc1)C(=O)O)C(=O)O (stereo partly drawn) [Compound J]
[5]; KB model
  toxicity at the two dose levels below MTD: minimal toxicity
[5]; versus ixabepilone
  antitumor effects compared at the MTDs: superior antitumor effects than ixabepilone
FRα(+) 98M109 tumors
  effect of co-administered folate analog on antitumor effects: protect FRα(+) 98M109 tumors from the antitumor effects of compound J
[6]
  relative affinity (RA) for folate receptor: 0.77
[7]
  MTD: 2.4 µmol/kg
[8]
  antitumor activity in FRα(−) M109 parent tumor model: poor activity at all dose levels tested

## CC(=O)O[C@H]1C(=O)[C@@]2(C)[C@H]([C@H](OC(=O)c3ccccc3)[C@]3(O)C[C@H](OC(=O)[C@H](O)[C@@H](NC(=O)c4ccccc4)c4ccccc4)C(C)=C1C3(C)C)[C@]1(OC(C)=O)CO[C@@H]1C[C@@H]2O [paclitaxel]
[1]
  R/S Ratio (A2780): 22.1
[2]; [12]
  IC50: 3.3 ± 1 nM

## C/C(=C\c1csc(CN)n1)[C@@H]1CC2O[C@]2(C)CCC[C@H](C)[C@H](O)[C@@H](C)C(=O)C(C)(C)[C@@H](O)CC(=O)O1 (stereo partly drawn) [Compound AA]
[1]
  R/S Ratio (A2780): 3
[2]; [12]
  IC50: 1.2 ± 0.3 nM
[3]; Homo sapiens, A2780, Mean IC50 ± SD from four separate experiments, MTS, 72 hour incubation
  IC50: 1.1 ± 0.4 nM
Phase II clinical trials
  activity in Phase II clinical trials: has activity
[4]
  R/S Ratio (HCT116): 14.8
[9]
  fold by which compound G is more potent than the named compound (IC90): ~4 fold

## C/C(=C\c1csc(C)n1)[C@@H]1CC2[C@@H](CCC[C@H](C)[C@H](O)[C@@H](C)C(=O)C(C)(C)[C@@H](O)CC(=O)O1)[N@@]2CCO (relative stereo) [Compound G, [1S-[1R*,3R*(E),7R*,10S*,11R*,12R*,16S*]]-7,11-Dihydroxy-17-[2-hydroxyethyl]-8,8,10,12-tetramethyl-3-[1-methyl-2-(2-methyl-4-thiazolyl)ethenyl]-4-oxa-17-azabicyclo[14.1.0]heptadecane-5,9-dione]
[9]; drug exposure duration of 17 hours
  IC90, concentration needed to kill 90% of clonogenic KB cancer cells: 4.3 nM

## C/C(=C\c1csc(C)n1)[C@@H]1C[C@@H]2O[C@]2(C)CCC[C@H](C)[C@H](O)[C@@H](C)C(=O)C(C)(C)[C@@H](O)CC(=O)N1 [ixabepilone]
[10]
  MTD: 5 µmol/kg
[9]
  fold by which compound G is more potent than the named compound (IC90): ~6 fold
[7]
  MTD: 5 µmol/kg
[8]
  antitumor activity in FRα(−) M109 parent tumor model: active at its MTD

## C/C(=C\c1csc(C)n1)C1C[C@@H]2N[C@@H]2CCC[C@H](C)[C@H](O)[C@@H](C)C(=O)C(C)(C)[C@@H](O)CC(=O)O1 (stereo partly drawn) [Compound CC]
[1]
  R/S Ratio (A2780): 4.7
[2]; Homo sapiens, HCT-116, 72 h
  IC50: 4.2 ± 2.8 nM
[3]; Homo sapiens, A2780, 72 h
  IC50: 3.4 ± 1.5 nM
[4]
  R/S Ratio (HCT116): 3.1
[9]
  fold by which compound G is more potent than the named compound (IC90): ~2 fold

## Nc1nc2ncc(CNc3ccc(C(=O)N[C@@H](CCC(=O)O)C(=O)O)cc3)nc2c(=O)[nH]1 [folic acid]
[6]
  relative affinity (RA) for folate receptor: 1.0
